The text below walks through data of patent US10544130B2, “Metallo-beta-lactamase inhibitors” (priority 2015, dated 2020).

The series concerns Pseudomonas aeruginosa PAO1 MB9798 (efflux+, IMP-1). As to conditions: ratio MITC95 PA 9798/MITC95 PA 9799; imipenem at 2 μg/mL. The text has this:
The strain background was Pseudomonas aeruginosa PAO1.
The strain set was then used as a pair to determine the effect of metallo-β-lactamase inhibitors of Formula I on the MIC of imipenem and/or ceftazidime. A fixed concentration of antibiotic was included in standard microbroth MIC tests, usually at the CLSI (Clinical and Laboratory Standards Institute) breakpoint concentration. A fixed amount of a class A/C beta-lactamase inhibitor was also included to inhibit the resident Pseudomonas AmpC enzyme. A serial titration of the metallo-β-lactamase inhibitor was included and the concentration of metallo-β-lactamase inhibitor which restores susceptibility of the strain to the included antibiotic was recorded. That concentration of metallo-β-lactamase inhibitor was then compared between the two strains to determine the fold difference between the efflux + (MB9798) and efflux − (MB9799) strains. This was taken as an indication of the extent to which the MBLi is subject to efflux.
Take `Nc1nc2c(-c3ccc(S(=O)(=O)N4CC[C@@H](N)C4)c(S(N)(=O)=O)c3-c3nnn[nH]3)cccc2s1` [Example 62, 3-(2-amino-1,3-benzothiazol-4-yl)-6-{[(3R)-3-aminopyrrolidin-l-yl]sulfonyl}-2-(1H-tetrazol-5-yl)benzenesulfonamide]: the Efflux ratio was 1.00.

Consider `Nc1nc2c(-c3ccc(S(=O)(=O)N[C@@H]4CCNC4)c(S(N)(=O)=O)c3-c3nnn[nH]3)cccc2s1` [Example 63, 4-(2-amino-1,3-benzothiazol-4-yl)-N1-[(3R)-pyrrolidin-3-yl]-3-(1H-tetrazol-5-yl)benzene-1,2-disulfonamide], for which the Efflux ratio worked out at 0.50.

As for `CN(C1CCCNC1)S(=O)(=O)c1ccc(-c2cccc3sc(N)nc23)c(-c2nnn[nH]2)c1S(N)(=O)=O` (stereo not drawn) [Example 64, 4-(2-amino-1,3-benzothiazol-4-yl)-N1-methyl-N1-piperidin-3-yl-3-(1H-tetrazol-5-yl)benzene-1,2-disulfonamide], the Efflux ratio was determined as 2.00.

In the case of `CN([C@H]1CCNC1)S(=O)(=O)c1ccc(-c2cccc3sc(N)nc23)c(-c2nnn[nH]2)c1S(N)(=O)=O` [Example 65, 4-(2-amino-1,3-benzothiazol-4-yl)-N1-methyl-N1-[(3S)-pyrrolidin-3-yl]-3-(1H-tetrazol-5-yl)benzene-1,2-disulfonamide], the Efflux ratio is given as 2.00.

Regarding `Nc1nc2c(-c3ccc(S(=O)(=O)N4CCC[C@H](N)C4)c(S(N)(=O)=O)c3-c3nnn[nH]3)cccc2s1` [Example 66, 3-(2-amino-1,3-benzothiazol-4-yl)-6-{[(3S)-3-aminopiperidin-1-yl]sulfonyl}-2-(1H-tetrazol-5-yl)benzenesulfonamide], the Efflux ratio came out at 2.00.

Take `Nc1nc2c(-c3ccc(S(=O)(=O)N[C@H]4CCCNC4)c(S(N)(=O)=O)c3-c3nnn[nH]3)cccc2s1` [Example 67, 4-(2-amino-1,3-benzothiazol-4-yl)-N1-[(3S)-piperidin-3-yl]-3-(1H-tetrazol-5-yl)benzene-1,2-disulfonamide]: the Efflux ratio is recorded as 1.00.

Turning to `Nc1nc2c(-c3ccc(S(=O)(=O)N4CCC[C@@H](N)C4)c(S(N)(=O)=O)c3-c3nnn[nH]3)cccc2s1` [Example 68, 3-(2-amino-1,3-benzothiazol-4-yl)-6-{[(3R)-3-aminopiperidin-1-yl]sulfonyl}-2-(1H-tetrazol-5-yl)benzenesulfonamide], the Efflux ratio is 2.00.

Turning to `Nc1nc2c(-c3ccc(S(=O)(=O)N[C@@H]4CCCNC4)c(S(N)(=O)=O)c3-c3nnn[nH]3)cccc2s1` [Example 69, 4-(2-amino-1,3-benzothiazol-4-yl)-N1-[(3R)-piperidin-3-yl]-3-(1H-tetrazol-5-yl)benzene-1,2-disulfonamide], the Efflux ratio is given as 0.50.

Consider `NC[C@@H]1CCN(S(=O)(=O)c2ccc(-c3cccc4sc(N)nc34)c(-c3nnn[nH]3)c2S(N)(=O)=O)C1` [Example 70, 3-(2-amino-1,3-benzothiazol-4-yl)-6-{[(3S)-3-(aminomethyl)pyrrolidin-1-yl]sulfonyl}-2-(1H-tetrazol-5-yl)benzenesulfonamide], for which the Efflux ratio is 1.00.

`Nc1nc2c(-c3ccc(S(=O)(=O)NC[C@H]4CCNC4)c(S(N)(=O)=O)c3-c3nnn[nH]3)cccc2s1` [Example 73, 4-(2-amino-1,3-benzothiazol-4-yl)-N^1-[(3S)-pyrrolidin-3-ylmethyl]-3-(1H-tetrazol-5-yl)benzene-1,2-disulfonamide]: the Efflux ratio is 0.50.

Regarding `NC[C@H]1CCN(S(=O)(=O)c2ccc(-c3cccc4sc(N)nc34)c(-c3nnn[nH]3)c2S(N)(=O)=O)C1` [Example 74, 3-(2-amino-1,3-benzothiazol-4-yl)-6-{[(3R)-3-(aminomethyl)pyrrolidin-l-yl]sulfonyl}-2-(1H-tetrazol-5-yl)benzenesulfonamide], the Efflux ratio was determined as 1.00.

Consider `Nc1nc2c(-c3ccc(S(=O)(=O)NC[C@@H]4CCNC4)c(S(N)(=O)=O)c3-c3nnn[nH]3)cccc2s1` [Example 75, 4-(2-amino-1,3-benzothiazol-4-yl)-N^1-[(3R)-pyrrolidin-3-ylmethyl]-3-(1H-tetrazol-5-yl)benzene-1,2-disulfonamide], for which the Efflux ratio is listed as 1.00.

Consider `CN1CC[C@@H](CNS(=O)(=O)c2ccc(-c3cccc4sc(N)nc34)c(-c3nnn[nH]3)c2S(N)(=O)=O)C1` [Example 76, 4-(2-amino-1,3-benzothiazol-4-yl)-N^1-{[(3R)-1-methylpyrrolidin-3-yl]methyl}-3-(1H-tetrazol-5-yl)benzene-1,2-disulfonamide], for which the Efflux ratio is recorded as 0.50.

Regarding `CN1CC[C@H](CNS(=O)(=O)c2ccc(-c3cccc4sc(N)nc34)c(-c3nnn[nH]3)c2S(N)(=O)=O)C1` [Example 77, 4-(2-amino-1,3-benzothiazol-4-yl)-N1-{[(3S)-1-methylpyrrolidin-3-yl]methyl}-3-(1H-tetrazol-5-yl)benzene-1,2-disulfonamide], the Efflux ratio is listed as 0.50.

For the compound `Nc1nc2c(-c3ccc(S(=O)(=O)N[C@H]4CN[C@H](CO)C4)c(S(N)(=O)=O)c3-c3nnn[nH]3)cccc2s1` [Example 78, 4-(2-amino-1,3-benzothiazol-4-yl)-N1-[(3R,5S)-5-(hydroxymethyl)pyrrolidin-3-yl]-3-(1H-tetrazol-5-yl)benzene-1,2-disulfonamide], the Efflux ratio is reported as 0.50.

In the case of `Nc1nc2c(-c3ccc(S(=O)(=O)N[C@@H]4CN[C@@H](CO)C4)c(S(N)(=O)=O)c3-c3nnn[nH]3)cccc2s1` [Example 79, 4-(2-amino-1,3-benzothiazol-4-yl)-N1-[(3S,5R)-5-(hydroxymethyl)pyrrolidin-3-yl]-3-(1H-tetrazol-5-yl)benzene-1,2-disulfonamide], the Efflux ratio came out at 0.50.

Consider `Nc1nc2c(-c3ccc(S(=O)(=O)N[C@@H]4CN[C@H](CO)C4)c(S(N)(=O)=O)c3-c3nnn[nH]3)cccc2s1` [Example 80, 4-(2-amino-1,3-benzothiazol-4-yl)-N1-[(3S,5S)-5-(hydroxymethyl)pyrrolidin-3-yl]-3-(1H-tetrazol-5-yl)benzene-1,2-disulfonamide], for which the Efflux ratio is on record as 1.00.

In the case of `Nc1nc2c(-c3ccc(S(=O)(=O)N[C@H]4CN[C@@H](CO)C4)c(S(N)(=O)=O)c3-c3nnn[nH]3)cccc2s1` [Example 81, 4-(2-amino-1,3-benzothiazol-4-yl)-N1-[(3R,5R)-5-(hydroxymethyl)pyrrolidin-3-yl]-3-(1H-tetrazol-5-yl)benzene-1,2-disulfonamide], the Efflux ratio came to 0.50.

Regarding `Nc1nc2c(-c3ccc(S(=O)(=O)N[C@H]4CN[C@@H](C(=O)O)C4)c(S(N)(=O)=O)c3-c3nnn[nH]3)cccc2s1` [Example 82, (4R)-4-({[4-(2-amino-1,3-benzothiazol-4-yl)-2-sulfamoyl-3-(1H-tetrazol-5-yl)phenyl]sulfonyl}amino)-D-proline], the Efflux ratio is reported as 0.50.

Consider `Nc1nc2c(-c3ccc(S(=O)(=O)NC4(CO)CCNC4)c(S(N)(=O)=O)c3-c3nnn[nH]3)cccc2s1` (stereo not drawn) [Example 83, 4-(2-amino-1,3-benzothiazol-4-yl)-N1-[3-(hydroxymethyl)pyrrolidin-3-yl]-3-(1H-tetrazol-5-yl)benzene-1,2-disulfonamide], for which the Efflux ratio is given as 0.50.

On to `Nc1nc2c(-c3ccc(S(=O)(=O)NC4(CO)CCNC4)c(S(N)(=O)=O)c3-c3nnn[nH]3)cccc2s1` (stereo not drawn) [Example 84, 4-(2-amino-1,3-benzothiazol-4-yl)-N1-[3-(hydroxymethyl)pyrrolidin-3-yl]-3-(1H-tetrazol-5-yl)benzene-1,2-disulfonamide], for which the Efflux ratio turned out to be 1.00.

For the compound `COCCNCCNS(=O)(=O)c1ccc(-c2cccc3sc(N)nc23)c(-c2nnn[nH]2)c1S(N)(=O)=O` [Example 85, 4-(2-aminobenzo[d]thiazol-4-yl)-N1-(2-((2-methoxyethyl)amino)ethyl)-3-(1H-tetrazol-5-yl)benzene-1,2-disulfonamide], the Efflux ratio is 1.00.

In the case of `Nc1nc2c(-c3ccc(S(=O)(=O)NCC4(O)CCNCC4)c(S(N)(=O)=O)c3-c3nnn[nH]3)cccc2s1` [Example 86, 4-(2-aminobenzo[d]thiazol-4-yl)-N^1-((4-hydroxypiperidin-4-yl)methyl)-3-(1H-tetrazol-5-yl)benzene-1,2-disulfonamide], the Efflux ratio turned out to be 0.50.

For the compound `CC(C)(N)CNS(=O)(=O)c1ccc(-c2cccc3sc(N)nc23)c(-c2nnn[nH]2)c1S(N)(=O)=O` [Example 87, N^1-(2-amino-2-methylpropyl)-4-(2-aminobenzo[d]thiazol-4-yl)-3-(1H-tetrazol-5-yl)benzene-1,2-disulfonamide], the Efflux ratio was determined as 0.50.

On to `Nc1nc2c(-c3ccc(S(=O)(=O)NC4CC5CNC4C5)c(S(N)(=O)=O)c3-c3nnn[nH]3)cccc2s1` (stereo not drawn) [Example 88, 4-(2-aminobenzo[d]thiazol-4-yl)-N^1-(2-azabicyclo[2.2.1]heptan-6-yl)-3-(1H-tetrazol-5-yl)benzene-1,2-disulfonamide], for which the Efflux ratio came to 0.50.

Take `Nc1nc2c(-c3ccc(S(=O)(=O)NC4CC5CNC4C5)c(S(N)(=O)=O)c3-c3nnn[nH]3)cccc2s1` (stereo not drawn) [Example 89, 4-(2-aminobenzo[d]thiazol-4-yl)-N^1-(2-azabicyclo[2.2.1]heptan-6-yl)-3-(1H-tetrazol-5-yl)benzene-1,2-disulfonamide]: the Efflux ratio is 1.00.

Consider `NCCCNS(=O)(=O)c1ccc(-c2cccc3sc(N)nc23)c(-c2nnn[nH]2)c1S(N)(=O)=O.O=C(O)C(F)(F)F` [Example 90, 3-(4-(2-aminobenzo[d]thiazol-4-yl)-2-sulfamoyl-3-(1H-tetrazol-5-yl)phenylsulfonamido) propan-1-aminium 2,2,2-trifluoroacetate], for which the Efflux ratio amounted to 0.50.
